# In ChEMBL document CHEMBL5465560, “Selectivity Literature for EUbOPEN Chemogenomic Library” (2024):
# Experiments:
# [1] = molecular target: Tyrosine-protein kinase Fer (Homo sapiens) (UniProt P16591); assay: Selectivity interaction (KinomeScan (DiscoverX)) EUB0000666a FER; conditions: at 10 µM
# [2] = system: Leucine-rich repeat serine/threonine-protein kinase 2 (Homo sapiens), Q5S007 [G2019S]; assay: (§1) Selectivity interaction (KinomeScan (DiscoverX)) EUB0000666a LRRK2; conditions: at 10 µM
# [3] = molecular target: Leucine-rich repeat serine/threonine-protein kinase 2 (Homo sapiens, UniProt Q5S007); assay: as §1; conditions: at 10 µM
# [4] = molecular target: Serine/threonine-protein kinase pim-1 (Homo sapiens, UniProt P11309); assay: Selectivity interaction (KinomeScan (DiscoverX)) EUB0000666a PIM1; conditions: at 10 µM
# [5] = molecular target: Mitogen-activated protein kinase 6 (Homo sapiens) (UniProt Q16659); assay: Selectivity interaction (KinomeScan (DiscoverX)) EUB0001079a MAPK6; conditions: at 1 µM
# [6] = molecular target: Casein kinase I isoform gamma-3 (Homo sapiens) (UniProt Q9Y6M4); conditions: at 10 µM
# [7] = molecular target: T1, Membrane-associated tyrosine- and threonine-specific cdc2-inhibitory kinase (Homo sapiens) (UniProt Q99640); conditions: at 10 µM
# T1 sequence (whole entry): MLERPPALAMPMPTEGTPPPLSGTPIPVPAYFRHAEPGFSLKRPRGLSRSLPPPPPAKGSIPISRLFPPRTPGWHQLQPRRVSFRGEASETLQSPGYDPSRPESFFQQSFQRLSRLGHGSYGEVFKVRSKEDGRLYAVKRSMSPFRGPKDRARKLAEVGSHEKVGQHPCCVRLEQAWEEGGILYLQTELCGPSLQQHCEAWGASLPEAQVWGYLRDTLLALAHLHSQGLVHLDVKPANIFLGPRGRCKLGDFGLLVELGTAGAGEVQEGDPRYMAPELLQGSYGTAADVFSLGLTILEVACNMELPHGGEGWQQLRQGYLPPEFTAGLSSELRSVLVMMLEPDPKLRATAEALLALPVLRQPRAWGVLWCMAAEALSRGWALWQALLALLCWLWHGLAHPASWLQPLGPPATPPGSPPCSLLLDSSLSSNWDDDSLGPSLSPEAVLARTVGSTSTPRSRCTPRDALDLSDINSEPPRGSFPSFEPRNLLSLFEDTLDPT
# [8] = molecular target: T2, Serine/threonine-protein kinase Nek1 (Homo sapiens) (UniProt Q96PY6); assay: Selectivity interaction (Kinase panel (DSF assay)) EUB0001559a NEK1
# T2 sequence (whole entry): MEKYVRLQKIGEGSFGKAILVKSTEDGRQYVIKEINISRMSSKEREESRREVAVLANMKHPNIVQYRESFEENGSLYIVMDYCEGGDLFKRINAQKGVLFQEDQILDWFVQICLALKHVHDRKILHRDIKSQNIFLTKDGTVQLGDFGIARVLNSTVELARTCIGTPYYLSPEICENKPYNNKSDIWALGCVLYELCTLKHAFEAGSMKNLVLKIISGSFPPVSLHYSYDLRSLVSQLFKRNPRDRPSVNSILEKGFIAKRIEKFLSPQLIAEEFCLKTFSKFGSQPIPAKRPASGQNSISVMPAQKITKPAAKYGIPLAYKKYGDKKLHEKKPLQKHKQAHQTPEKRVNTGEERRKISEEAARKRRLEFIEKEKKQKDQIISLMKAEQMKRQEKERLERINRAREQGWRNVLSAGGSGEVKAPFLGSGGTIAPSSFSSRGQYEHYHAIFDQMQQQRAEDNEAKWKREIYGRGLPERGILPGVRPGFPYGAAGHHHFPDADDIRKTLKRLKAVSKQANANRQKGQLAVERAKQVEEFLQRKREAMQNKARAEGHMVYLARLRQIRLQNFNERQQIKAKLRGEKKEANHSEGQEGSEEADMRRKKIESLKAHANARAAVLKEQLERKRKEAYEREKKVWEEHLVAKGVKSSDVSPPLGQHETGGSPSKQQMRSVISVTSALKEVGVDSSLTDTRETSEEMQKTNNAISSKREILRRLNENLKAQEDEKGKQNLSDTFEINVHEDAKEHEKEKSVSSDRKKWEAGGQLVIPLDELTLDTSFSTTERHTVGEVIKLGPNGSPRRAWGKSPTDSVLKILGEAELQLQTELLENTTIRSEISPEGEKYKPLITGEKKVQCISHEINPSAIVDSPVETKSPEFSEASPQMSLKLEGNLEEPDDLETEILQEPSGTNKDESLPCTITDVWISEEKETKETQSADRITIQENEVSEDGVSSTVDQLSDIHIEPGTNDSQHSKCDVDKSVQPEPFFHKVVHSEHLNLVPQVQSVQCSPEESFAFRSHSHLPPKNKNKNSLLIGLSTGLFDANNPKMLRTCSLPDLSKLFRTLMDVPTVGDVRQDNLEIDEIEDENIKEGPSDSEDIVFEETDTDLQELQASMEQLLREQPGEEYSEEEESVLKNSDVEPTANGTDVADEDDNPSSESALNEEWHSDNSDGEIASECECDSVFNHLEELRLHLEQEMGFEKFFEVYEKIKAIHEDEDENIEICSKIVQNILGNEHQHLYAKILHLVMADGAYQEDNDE
# [9] = molecular target: Cyclin-dependent kinase 3 (Homo sapiens) (UniProt Q00526); assay: Selectivity interaction (KinomeScan (DiscoverX)) EUB0000092b CDK3; conditions: at 10 µM
# [10] = molecular target: Serine/threonine-protein kinase PAK 2 (Homo sapiens) (UniProt Q13177); assay: Selectivity interaction (KinomeScan (DiscoverX)) EUB0000092b PAK2; conditions: at 10 µM
# [11] = molecular target: RAC-beta serine/threonine-protein kinase (Homo sapiens) (UniProt P31751); assay: Selectivity interaction (Kinase screening (Nanosyn)) EUB0000604a AKT2
# [12] = molecular target: Angiopoietin-1 receptor (Homo sapiens) (UniProt Q02763); conditions: at 10 µM
# [13] = molecular target: Leukocyte tyrosine kinase receptor (Homo sapiens, UniProt P29376); assay: Selectivity interaction (SelectScreen profiling (Invitrogen)) EUB0000607a LTK; conditions: at 2 µM
# [14] = molecular target: Histamine H2 receptor (Homo sapiens) (UniProt P25021); assay: Selectivity interaction (Panel of non-epigenetic targets (kinases, GPCRs, ion channels, and transporters, Eurofins) ) EUB0000271b HRH2; conditions: at 1 µM
# [15] = molecular target: Tyrosine-protein kinase Fgr (Homo sapiens) (UniProt P09769); assay: Selectivity interaction (ProQinase) EUB0000171b FGR
# [16] = system: Platelet-derived growth factor receptor alpha (Homo sapiens), P16234 [D842V]; assay: (§2) Selectivity interaction (ProQinase) EUB0000171b PDGFRA
# [17] = system: Platelet-derived growth factor receptor alpha (Homo sapiens), P16234 [T674I]; assay: as §2
# [18] = system: Platelet-derived growth factor receptor alpha (Homo sapiens), P16234 [V561D]; assay: as §2
# [19] = molecular target: Platelet-derived growth factor receptor alpha (Homo sapiens, UniProt P16234); assay: as §2
# Platelet-derived growth factor receptor alpha, sequence (P16234 whole entry): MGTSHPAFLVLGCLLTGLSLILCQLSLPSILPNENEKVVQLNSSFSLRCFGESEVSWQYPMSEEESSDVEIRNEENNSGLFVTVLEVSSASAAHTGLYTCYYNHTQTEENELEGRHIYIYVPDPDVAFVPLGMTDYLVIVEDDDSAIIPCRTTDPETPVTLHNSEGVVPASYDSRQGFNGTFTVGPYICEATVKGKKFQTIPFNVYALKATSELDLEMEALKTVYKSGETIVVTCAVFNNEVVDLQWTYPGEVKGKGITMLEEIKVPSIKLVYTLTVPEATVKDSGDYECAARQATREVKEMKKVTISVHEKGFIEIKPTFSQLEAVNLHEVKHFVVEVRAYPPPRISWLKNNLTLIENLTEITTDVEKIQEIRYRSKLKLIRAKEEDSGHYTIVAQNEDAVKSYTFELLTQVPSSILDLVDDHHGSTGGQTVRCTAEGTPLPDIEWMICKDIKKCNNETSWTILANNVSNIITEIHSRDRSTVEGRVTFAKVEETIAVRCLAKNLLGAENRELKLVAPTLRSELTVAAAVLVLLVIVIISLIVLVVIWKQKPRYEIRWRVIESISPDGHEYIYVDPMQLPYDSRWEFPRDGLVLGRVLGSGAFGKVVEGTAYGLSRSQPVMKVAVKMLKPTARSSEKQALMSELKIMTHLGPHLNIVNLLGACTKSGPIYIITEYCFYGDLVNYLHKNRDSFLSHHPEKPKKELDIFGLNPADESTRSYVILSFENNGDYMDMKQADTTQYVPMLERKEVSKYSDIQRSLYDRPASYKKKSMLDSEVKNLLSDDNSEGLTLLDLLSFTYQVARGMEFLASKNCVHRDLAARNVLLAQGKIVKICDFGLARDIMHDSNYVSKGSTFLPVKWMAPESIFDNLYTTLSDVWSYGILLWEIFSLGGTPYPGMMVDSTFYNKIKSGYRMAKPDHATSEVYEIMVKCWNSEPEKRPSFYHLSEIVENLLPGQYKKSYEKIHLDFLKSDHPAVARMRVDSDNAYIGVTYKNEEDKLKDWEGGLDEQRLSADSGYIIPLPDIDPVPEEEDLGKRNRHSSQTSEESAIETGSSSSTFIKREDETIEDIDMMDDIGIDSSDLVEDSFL
# Platelet-derived growth factor receptor alpha (Homo sapiens), P16234 [D842V], sequence (P16234 whole entry D842V): as the sequence (P16234 whole entry) above, with D842V counted along it
# Platelet-derived growth factor receptor alpha (Homo sapiens), P16234 [V561D], sequence (P16234 whole entry V561D): as the sequence (P16234 whole entry) above, with V561D counted along it
# Platelet-derived growth factor receptor alpha (Homo sapiens), P16234 [T674I], sequence (P16234 whole entry T674I): as the sequence (P16234 whole entry) above, with T674I counted along it
# Tyrosine-protein kinase Fgr (Homo sapiens), sequence (P09769 2-529 limits assumed): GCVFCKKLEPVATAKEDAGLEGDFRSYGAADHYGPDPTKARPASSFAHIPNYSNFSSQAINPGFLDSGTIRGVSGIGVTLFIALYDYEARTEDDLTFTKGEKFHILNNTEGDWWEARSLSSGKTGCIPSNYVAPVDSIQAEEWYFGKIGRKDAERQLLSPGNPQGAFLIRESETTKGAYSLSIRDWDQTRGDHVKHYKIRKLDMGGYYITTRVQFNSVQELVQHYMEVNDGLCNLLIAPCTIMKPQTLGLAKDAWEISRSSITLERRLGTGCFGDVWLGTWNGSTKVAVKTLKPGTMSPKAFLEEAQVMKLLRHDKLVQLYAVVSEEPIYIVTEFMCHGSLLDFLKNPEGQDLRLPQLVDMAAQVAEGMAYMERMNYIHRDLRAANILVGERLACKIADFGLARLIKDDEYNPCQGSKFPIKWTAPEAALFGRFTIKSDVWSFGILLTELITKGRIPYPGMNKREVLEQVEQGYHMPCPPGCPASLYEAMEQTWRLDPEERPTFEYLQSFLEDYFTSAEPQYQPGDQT
smiles,measurement,setting,value
O=C(NOC[C@H](O)CO)c1ccc(F)c(F)c1Nc1ccc(I)cc1F,% of control,[1],100%
same,% of control,[2],100%
same,% of control,[3],86%
same,% of control,[4],100%
Nc1cnc(N2CCc3cc(S(=O)(=O)Nc4c(F)cc(Cl)cc4F)cc(N4CCCC4=O)c32)nc1 [TP-020n],% of control,[5],100%
CCN(CC)CCCCNc1ncc2cc(-c3cc(OC)cc(OC)c3)c(NC(=O)NC(C)(C)C)nc2n1,% of control,[6],100%
same,% of control,[7],100%
CN(C(=O)c1cnn2cccnc12)c1cc2c(cc1N1CCOCC1)C(=O)N(C[C@@H](F)C(C)(C)O)C2,dTM,[8],0.4 K
CCC(=O)N1CCN(c2ccc(-n3c(=O)ccc4cnc5ccc(-c6cnc7ccccc7c6)cc5c43)cc2C(F)(F)F)CC1,% of control,[9],100%
same,% of control,[10],100%
Cc1cnc(Nc2ccc(F)cc2Cl)nc1-c1c[nH]c(C(=O)N[C@H](CO)c2cccc(Cl)c2)c1,% of inhibition,[11],0%
Cc1cc([C@@H](C)Nc2ccccc2C(=O)O)c2nc(N3CCOCC3)cc(=O)n2c1 [AZD-6482],% of control,[12],100%
CNC(=O)Nc1ccc(-c2nc(N3CC4CCC(C3)O4)c3cnn(C4CCC5(CC4)OCCO5)c3n2)cc1,% of inhibition,[13],8%
Cc1cc(C)cc([C@@H]2c3cc(C)ccc3NC(=O)CN2C(=O)c2ccc(Br)s2)c1,% of inhibition,[14],-18%
C=CC(=O)Nc1cccc(C(=O)Nc2ccc(Nc3cc(-c4[nH]c(SC)nc4C)ccn3)cc2)c1,% of control,[15]; at 1 µM,87%
same,% of control,[15]; at 5 µM,79%
same,% of control,[16]; at 1 µM,68%
same,% of control,[16]; at 5 µM,41%
same,% of control,[17]; at 1 µM,96%
same,% of control,[17]; at 5 µM,84%
same,% of control,[18]; at 1 µM,91%
same,% of control,[18]; at 5 µM,68%
same,% of control,[19]; at 1 µM,97%
same,% of control,[19]; at 5 µM,72%
